Reference: patent EP4782431A1 (Suzhou Merna Therapeutics Co. Ltd, priority 2023, dated 2025)

How the values were obtained:
HaCaT cells [1] = test: m6A methylation level of drug-treated HaCaT keratinocytes by nanopore sequencing; format: cell-based, human; conditions: 50 nM drug, 24 hours, vs blank control group
Procedure: 1*10^8 HaCaT cells were seeded in culture dishes, into which 50 nM drugs (including sorafenib, capecitabine, docetaxel, and osimertinib) were added, respectively. The cells were cultured in an incubator containing 5% CO2 at 37°C for 24 hours and washed with PBS after culture media were removed. Centrifugation was performed, the supernatant was discarded, and then, 400 µL of an RLT cell lysis buffer (QIAGEN, Cat.#79216) was added. A portion of samples were selected, into which 400 µL of 70% ethanol was added. The mixture was evenly stirred and then transferred to an RNeasy mini column, and RNA was extracted using an RNeasy mini kit (QIAGEN, Cat.#74104). 2 µL of an RNA sample was selected and dissolved in 98 µL of a 10 mM Tris-HCl buffer solution, and the absorbance at 260 nm was measured using a Nanodrop (Thermo Fisher Scientific) to determine the RNA concentration.
40 µg of an RNA sample was selected for enrichment of mRNA (PolyA+RNA) using an NEBNext Poly(A) mRNA magnetic isolation module (NEB, Cat.#E7490), and then, a 3' end of the above enriched mRNA (PolyA+RNA) molecule was ligated with reverse transcription adapter RTA using a direct RNA sequencing kit (Oxford Nanopore Technologies, Cat.#SQK-RNA002). A reverse transcription reaction was performed with the mRNA (PolyA+RNA) molecule as a template to synthesize a complementary strand, a terminal end of the reverse transcription adapter RTA was ligated with a sequencing adapter (RNA adapter) to form a final sequencing library, and quantitative detection was performed using a Qubit™ dsDNA HS assay kit (Invitrogen, Cat.#LOT2133187).
After quality inspection of the library, the prepared sequencing library was loaded onto a PromethION flow cell chip (Oxford Nanopore Technologies, Cat.#FLO-MIN106D), and placed in a PromethION sequencer (Oxford Nanopore Technologies) for sequencing by selecting a matched sequencing mode. Basecalling was performed on sequencing data through guppy, and m6A methylation analysis was performed on original fast5 data.

HaCaT cells [2] = test: m6A methylation level of human keratinocytes (EpiQuik m6A RNA methylation quantification kit); format: cell-based; conditions: 50 nM drug alone, 24 hours, relative to control group 1 (DMSO)
Procedure: HaCaT cells were cultured in DMEM culture medium containing 10% fetal bovine serum, 100 U/mL penicillin, and 100 µg/mL streptomycin. Culture dishes were placed in an incubator containing 5% CO2 for culture at 37°C for 24 hours. An equal volume of DMSO was added in control group 1, 50 nM sorafenib, capecitabine, docetaxel, and osimertinib were respectively added in control groups A, B, C, and D, and 400 nM test compounds or nicotinamide were respectively added in sample groups A1, A2, B1, B2, C1, C2, D1, and D2 after the addition of 50 nM corresponding compounds. The cells were continuously cultured for 24 hours, washed with PBS, and then collected by high-speed centrifugation. Total RNA was extracted using Trizol reagent (Sigma Aldrich), and RNA m6A methylation of a sample was quantitatively detected using an EpiQuik m6A RNA methylation quantification kit. The concentrations of positive control samples for a standard curve were 0.01 ng/µl, 0.02 ng/µl, 0.05 ng/µl, 0.1 ng/µl, 0.2 ng/µl, and 0.5 ng/µl. The absorbance at 450 nm was read using a microplate reader (Tecan GENios). A quantitative calculation formula for m6A is as follows: m6A(ng) = (absorbanceofsamplewell−absorbanceofbackroundwell)/slope of standard curve [formula] m6A(%) = m6A(ng)/RNA amount of sample(ng)*100%. [formula]

[3] = tested on: chemotherapeutic drug-induced mouse model with hand-foot syndrome; test: chemotherapeutic drug-induced mouse model with hand-foot syndrome; format: in vivo, ICR mice; conditions: for swelling of the hind limb toes of the mice / epidermal layer and the stratum corneum in the skin tissues of the hind limb toes: modeling drug oral; for swelling of the hind limb toes of the mice: 14 days: capecitabine 200 mg/kg, docetaxel 25 mg/kg; for epidermal layer and the stratum corneum in the skin tissues of the hind limb toes: 14 days: capecitabine, docetaxel; for skin of the hind limb toes of the mice (appearance): modeling for 14 days: capecitabine 200 mg/kg, docetaxel 25 mg/kg oral gavage once daily
Description: After adaptive feeding for 7 days, SPF-grade ICR mice (male, 5-6 weeks old, with a body weight of approximately 35 g) were randomly divided into groups, including a blank control group (6 mice), a capecitabine modeling group (6 mice), a docetaxel modeling group (6 mice), a capecitabine + compound of formula (I) group (6 mice), a docetaxel + compound of formula (I) group (6 mice), a capecitabine + nicotinamide group (6 mice), and a docetaxel + nicotinamide group (6 mice). The groups were respectively administered corresponding modeling drugs by oral gavage (capecitabine at 200 mg/kg and docetaxel at 25 mg/kg) once daily; and the blank control group was administered an equivalent volume of normal saline. After administration with the chemotherapeutic drugs for 2 weeks, the ointments containing the compound of formula (I) (at a compound content of 3%) used in Example 10 were respectively applied topically in the groups, or nicotinamide was orally administered (100 mg/kg) once daily continuously for 16 days.
Measurement of the degree of swelling of toes: The degree of swelling of hind limb toes of the mice was measured using a toe swelling tester (KW-7C, Nanjing Calvin Biotechnology Co., Ltd.) before administration with the modeling drugs, after administration with the modeling drugs for 2 weeks, and before sacrifice, respectively. Before measurement, ankle joints of hind feet of the mice were marked at same positions before administration, after administration for 2 weeks, and before sacrifice. During measurement, water was properly located at the same level as the marked positions, and numerical values were recorded after becoming stable.
Pathological staining of skin tissues: Skin tissue samples were selected from hind limb toes of the mice and placed in 4% paraformaldehyde for fixation at room temperature for 4 hours. Then, the tissues were taken out and rinsed with running water for several hours. The samples were subjected to dehydration treatment with 70%, 80%, and 90% ethanol solutions, followed by treatment with a mixed solution of equal amounts of absolute alcohol and xylene for 15 minutes, and then permeabilized twice with a xylene solution for 15 minutes each time until the samples became transparent. The samples were placed in a mixture of half xylene and half paraffin for soaking for 15 minutes, and then, paraffin I and paraffin II were added for wax penetration for one hour, respectively. After embedding with paraffin, the samples were sectioned, baked, dewaxed, and hydrated. Then, the hydrated sections were placed in a hematoxylin solution (ZSGB-BIO, article No. 23041001) for staining for 3 minutes, and a differentiation solution of hydrochloric acid in ethanol was added for differentiation for 15 seconds. After rinsing with water, a Scott bluing solution (Servicebio, article No. 20230801) was added for bluing for 15 seconds. After rinsing with running water, the sections were stained with an eosin solution (Solarbio, article No. 33535) for 3 minutes, rinsed with running water, dehydrated, permeabilized, sealed, and inspected under a microscope.
Immunohistochemical staining: After baking, dewaxing, and hydration, paraffin sections of skin tissues of hind limb toes of the mice were subjected to antigen retrieval using a 0.2 M citric acid buffer solution (containing 1.534 g of citric acid, 3.1 g of sodium citrate, and 100 mL of distilled water, pH 4.7). Endogenous […] was removed using 3% hydrogen peroxide (Shandong Annjet High-Tech Disinfection Technology Co., Ltd., article No. 20290902), and the sections were incubated at room temperature for 10 minutes and then fully rinsed with a PBS buffer solution (containing 8 g of NaCl, 0.2 g of KCl, 1.44 g of Na2HPO4, and 1 M HCl, pH 7.4). The sections were permeabilized with 0.5% Triton-X-100 (AmyJet Scientific, article No. A-CSH436-100 mL), respectively permeabilized with mouse anti-IL-1β and rabbit IL-8 for 10 minutes, and not permeabilized with rabbit anti-IL-6. […]

[4] = competitive suspension tests of crystal forms (XRPD); format: physicochemical; conditions: isopropanol, isopropyl acetate, and acetonitrile; 5°C, 25°C, 50°C, 3 days
Procedure: A 2θ scanning angle of the sample was 3°-40°, a scanning step size was 0.02°, and a scanning time per step was 0.12 s/step. An optical tube voltage and a current were 40 kV and 40 mA, respectively. During sample preparation, an appropriate amount of the sample was placed on a sample tray and flattened with a tool such as a glass slide to ensure a smooth and even surface.
Resulting suspensions were suspended at 5°C, 25°C, and 50°C for 3 days, respectively. The resulting suspensions were centrifuged, and solid portions were detected by XRPD.

Row | SMILES | m6A methylation levels of HaCaT cells higher than that of the control group (HaCaT cells [1]) | m6A fold change (HaCaT cells [2]) | cytokine IL-8 in the skin tissues of the hind limb toes of the mice ([3]; capecitabine oral 14 days, vs normal control group, p<0.05) | swelling of the hind limb toes of the mice [3] | epidermal layer and the stratum corneum in the skin tissues of the hind limb toes ([3]; vs normal control group) | skin of the hind limb toes of the mice (appearance) ([3]; vs normal control group) | cytokine IL-6 in the skin tissues of the hind limb toes of the mice ([3]; docetaxel oral 14 days, vs normal control group, p<0.05) | crystal form after competitive suspension slurrying [4]
1 | CCCCCOC(=O)Nc1nc(=O)n([C@@H]2O[C@H](C)[C@@H](O)[C@H]2O)cc1F [Capecitabine, capecitabine] | 6.01 fold | 6.7 fold | significantly increased | swelling of the hind limb toes of the mice was caused | significantly thickened | obvious erythema, rhagades, and blisters | – | –
2 | CC(=O)O[C@@]12CO[C@@H]1C[C@H](O)[C@@]1(C)C(=O)[C@H](O)C3=C(C)[C@@H](OC(=O)[C@H](O)[C@@H](NC(=O)OC(C)(C)C)c4ccccc4)C[C@@](O)([C@@H](OC(=O)c4ccccc4)[C@H]21)C3(C)C [Docetaxel, docetaxel] | 3.97 fold | 5.6 fold | – | swelling of the hind limb toes of the mice was caused | significantly thickened | obvious erythema, rhagades, and blisters | significantly increased | –
3 | NC(=O)[C@H]1CCCc2c1[nH]c1ccc(Cl)cc21 [Crystal form B, (S)-6-chloro-2,3,4,9-tetrahydro-1H-carbazole-carboxamide] | – | – | – | – | – | – | – | converted into the crystal form F
